“And” between values parts separate entries of the source, which are not always exact repeats. Equal values may be shown once.
Legend:
[1] = 313.15 K; Liquid; Closed cell (Static) method
[2] = excess molar enthalpy (molar enthalpy of mixing); xn = mol fraction of the nth substance listed; settings: 101 kPa, Liquid, Flow calorimetry

Cc1ccc(C)c(C)c1 [1,2,4-trimethylbenzene]
Settings	vapor or sublimation pressure [kPa]
[1]	0.73

Cc1ccc(C)c(C)c1 [1,2,4-trimethylbenzene] + CCCC(C)O
excess molar enthalpy [kJ/mol], [2]
Settings	298.15 K	313.15 K
x2 = 0	0	0
x2 = 0.0499	0.601	0.622
x2 = 0.0987	–	0.992
x2 = 0.1012	0.911	–
x2 = 0.149	1.1	1.24
x2 = 0.1982	–	1.4
x2 = 0.2006	1.24	–
x2 = 0.2487	1.35	–
x2 = 0.2509	–	1.51
x2 = 0.298	1.42	–
x2 = 0.3002	–	1.6
x2 = 0.3485	1.47	–
x2 = 0.3507	–	1.64
x2 = 0.3979	1.5	1.67
x2 = 0.4482	1.51	–
x2 = 0.4504	–	1.67
x2 = 0.4996	1.49	1.66
x2 = 0.5476	–	1.62
x2 = 0.5496	1.46	–
x2 = 0.6005	–	1.55
x2 = 0.6006	1.4	–
x2 = 0.6482	–	1.45
x2 = 0.6502	1.31	–
x2 = 0.6987	–	1.33
x2 = 0.6988	1.21	–
x2 = 0.7479	–	1.19
x2 = 0.748	1.08	–
x2 = 0.7978	–	1.02
x2 = 0.7979	0.922	–
x2 = 0.8481	–	0.811
x2 = 0.8482	0.734	–
x2 = 0.8989	–	0.578
x2 = 0.899	0.519	–
x2 = 0.9501	–	0.3
x2 = 0.9502	0.271	–

Cc1ccc(C)c(C)c1 [1,2,4-trimethylbenzene] + CCCCCO
excess molar enthalpy [kJ/mol], [2]
Settings	298.15 K	313.15 K
x2 = 0	0	0
x2 = 0.0503	0.52	0.582
x2 = 0.0995	0.734	0.864
x2 = 0.15	0.855	1.04
x2 = 0.1995	0.919	1.14
x2 = 0.2501	0.975	–
x2 = 0.2502	–	1.21
x2 = 0.2997	1.01	1.24
x2 = 0.3481	1.01	1.26
x2 = 0.3998	1.01	1.25
x2 = 0.4481	0.979	–
x2 = 0.4482	–	1.23
x2 = 0.4995	0.934	1.18
x2 = 0.5495	0.88	–
x2 = 0.5496	–	1.12
x2 = 0.5985	0.812	–
x2 = 0.5986	–	1.05
x2 = 0.6482	0.733	0.951
x2 = 0.6985	0.641	–
x2 = 0.6986	–	0.848
x2 = 0.7494	0.539	–
x2 = 0.7495	–	0.723
x2 = 0.7991	0.434	0.594
x2 = 0.8492	0.325	0.452
x2 = 0.8997	0.221	0.305
x2 = 0.9505	0.106	0.148

C=CCCCC [hex-1-ene]
Settings	vapor or sublimation pressure
[1]	44.91 kPa and 44.95 kPa

C=CCCCC [hex-1-ene] + CCCC(C)O
[2], x2 = 0
Settings	excess molar enthalpy [kJ/mol]
298.15 K	0
313.15 K	0

C=CCCCC [hex-1-ene] + CCCCCO
excess molar enthalpy [kJ/mol], [2]
Settings	298.15 K	313.15 K
x2 = 0	0	0
x2 = 0.0506	–	0.508
x2 = 0.0507	0.397	–
x2 = 0.1005	–	0.664
x2 = 0.1006	0.498	–
x2 = 0.152	–	0.749
x2 = 0.1522	0.56	–
x2 = 0.2027	–	0.802
x2 = 0.203	0.598	–
x2 = 0.2528	–	0.816
x2 = 0.2531	0.62	–
x2 = 0.3021	–	0.829
x2 = 0.3022	0.63	–
x2 = 0.3526	–	0.807
x2 = 0.353	0.627	–
x2 = 0.4026	–	0.795
x2 = 0.403	0.611	–
x2 = 0.4519	–	0.764
x2 = 0.4523	0.579	–
x2 = 0.5026	–	0.718
x2 = 0.503	0.54	–
x2 = 0.5524	–	0.666
x2 = 0.5529	0.495	–
x2 = 0.6035	–	0.603
x2 = 0.604	0.444	–
x2 = 0.6519	–	0.531
x2 = 0.6523	0.382	–
x2 = 0.7019	0.325	0.457
x2 = 0.7526	0.263	0.372
x2 = 0.8008	0.2	–
x2 = 0.8025	–	0.285
x2 = 0.8482	0.146	–
x2 = 0.8517	–	0.211
x2 = 0.9019	–	0.132
x2 = 0.902	0.0871	–
x2 = 0.9513	0.038	0.0581

CCCCCO [pentan-1-ol]
Settings	vapor or sublimation pressure
[1]	0.913 kPa and 0.918 kPa

CCCCCO [pentan-1-ol] + C=CCCCC
[2], x1 = 1
Settings	excess molar enthalpy [kJ/mol]
298.15 K	0
313.15 K	0

CCCCCO [pentan-1-ol] + Cc1ccc(C)c(C)c1
[2], x1 = 1
Settings	excess molar enthalpy [kJ/mol]
298.15 K	0
313.15 K	0

CCCC(C)O (configuration not stated) [pentan-2-ol]
Settings	vapor or sublimation pressure
[1]	2.281 kPa and 2.268 kPa

CCCC(C)O (configuration not stated) [pentan-2-ol] + C=CCCCC
excess molar enthalpy [kJ/mol], [2]
Settings	298.15 K	313.15 K
x1 = 0.05	–	0.59
x1 = 0.0503	0.489	–
x1 = 0.0999	0.659	0.821
x1 = 0.1511	0.766	–
x1 = 0.1512	–	0.957
x1 = 0.2015	0.845	–
x1 = 0.2017	–	1.06
x1 = 0.2513	0.902	–
x1 = 0.2516	–	1.11
x1 = 0.3027	0.94	–
x1 = 0.3028	–	1.16
x1 = 0.3512	0.963	–
x1 = 0.3513	–	1.18
x1 = 0.4032	0.979	–
x1 = 0.4034	–	1.18
x1 = 0.4509	–	1.16
x1 = 0.4525	0.979	–
x1 = 0.5014	–	1.14
x1 = 0.503	0.962	–
x1 = 0.5513	–	1.09
x1 = 0.5529	0.928	–
x1 = 0.6005	–	1.04
x1 = 0.6018	0.877	–
x1 = 0.6523	0.811	0.95
x1 = 0.702	0.731	0.86
x1 = 0.751	0.631	0.752
x1 = 0.8004	0.514	–
x1 = 0.8012	–	0.623
x1 = 0.85	0.391	–
x1 = 0.8506	–	0.48
x1 = 0.9007	0.24	–
x1 = 0.9012	–	0.31
x1 = 0.9507	0.112	–
x1 = 0.9509	–	0.155
x1 = 1	0	0

CCCC(C)O (configuration not stated) [pentan-2-ol] + Cc1ccc(C)c(C)c1
[2], x1 = 1
Settings	excess molar enthalpy [kJ/mol]
298.15 K	0
313.15 K	0
